According to patent publication US20140199327A1, “METHODS OF PROMOTING DIFFERENTIATION” (Genentech, Inc., priority 2011, published 2014):
Where a SMILES comes first, the peptide text is derived from it. The star is where a group is joined. Cbz = O=C(OCc1ccccc1)*

Columns and labels:
[1] = tested on: proteasome; test: ID2 abundance after proteasome inhibition in 293T cells; format: cell-based, human; details: MG-132 10 μM
Experimental: (§1) The human cell lines 143B, 293T, HOS, MG-63, SAOS-2, SJSA, and U2-OS (ATCC) were maintained in DMEM with 10% FBS (Sigma), 10 units/ml penicillin, and 10 μg/ml streptomycin (Gibco). Primary human osteoblasts (PromoCell) were expanded in primary osteoblast medium (PromoCell) and subcultured in DMEM supplemented as above. Primary human mesenchymal stem cells derived from normal bone marrow (Lonza) were subcultured in mesenchymal stem cell growth medium (Lonza). For osteogenic differentiation studies, hMSC were cultured in osteogenic differentiation medium (Lonza) supplemented with 100 ng/mL BMP-9 (R&D Systems). Primary human osteosarcomas were obtained from CytoMix, LLC, and from the Cooperative Human Tissue Network. […] Murine NIH-3T3 (ATCC) were cultured in supplemented DMEM. Wild-type and USP1^−/− DT-40 cells were a kind gift from K. Patel and were cultured in RPMI with 7% FBS and 3% chicken serum (Gibco). MG-132 (Calbiochem) was used at 10 μM. Cycloheximide (Sigma) was used at 25 μg/ml.
(§2) Rat monoclonal antibodies were raised against the C-terminal 100 amino-acids of human USP1 or WDR48 to produce the monoclonal USP1 antibody 5E10 and WDR48 antibody 9F10. […]

[2] = tested on: proteasome; test: ID2 abundance after proteasome inhibition in DT40 cells; format: cell-based, chicken
Experimental: as §1

[3] = tested on: proteasome; test: ID protein abundance after proteasome inhibition in U2-OS cells; format: cell-based, human
Experimental: as §1, §2

[4] = tested on: 143B osteosarcoma xenograft; test: 143B osteosarcoma xenograft model; format: in vivo, NCr nude mice
Experimental: U2-OS, HOS, or SAOS cells were transfected three times with pRS shUSP1 or shCTL as follows: Cells were initially transfected with shUSP1 or shCTL, cultured for 2 days, and selected with puromycin for 3 days. Cells were retransfected with pMACS and shUSP1 or shCTL, cultured for 2 days, sorted by anti-H-2K^k bead sort (Miltenyi), cultured for 1 day, and serially re-transfected with shUSP1 or shCTL. Cells were cultured for an additional 3 days and osteoblast and hMSC markers were assessed by flow cytometry, real-time RT-PCR, and ALP assay. 143B cells were transduced with pTRIPZ-based inducible USP1 or control shRNA vectors and puromycin-resistant cells were subcultured.
8-week-old female NCr nude mice were injected subcutaneously in the right hind flank with 2.5×10^6 143 B shUSP1 cells in a volume of 100 μl of HBSS+matrigel. Doxycycline-treated mice were fed 1 mg/mL solutions of doxycycline in 5% sucrose water. Mice were monitored for tumor establishment and growth as well as body weight changes. When mice in a given group achieved a mean tumor volume of 2000 mm^3 and/or reached 78 days post-inoculation, mice were euthanized and dissected to confirm the presence or absence of tumor formation.

[5] = target: T1, ubiquitinated ID2-Flag (ID2 with C-terminal Flag epitope, modified with HA-ubiquitin, affinity purified from 293T cells)
T1 chain: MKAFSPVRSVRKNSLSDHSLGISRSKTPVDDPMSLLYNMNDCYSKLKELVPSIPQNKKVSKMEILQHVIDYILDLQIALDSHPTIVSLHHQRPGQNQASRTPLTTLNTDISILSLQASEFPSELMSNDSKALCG

[6] = target: T2, ID2 (co-transfected / co-expressed in 293T cells)
T2 chain: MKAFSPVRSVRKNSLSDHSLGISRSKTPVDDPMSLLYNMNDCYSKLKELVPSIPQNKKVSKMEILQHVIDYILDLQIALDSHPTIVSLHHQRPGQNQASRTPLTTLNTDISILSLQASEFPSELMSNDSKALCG

[7] = target: T3, endogenous USP1 (U2-OS and HOS osteosarcoma cells) (human, UniProt O94782 1-785); test: immunoprecipitation of endogenous USP1 from U2-OS cells, blot for ID2; control with nonspecific IgG
T3 construct: Endogenous protein immunoprecipitated from human cell lines
T3 sequence: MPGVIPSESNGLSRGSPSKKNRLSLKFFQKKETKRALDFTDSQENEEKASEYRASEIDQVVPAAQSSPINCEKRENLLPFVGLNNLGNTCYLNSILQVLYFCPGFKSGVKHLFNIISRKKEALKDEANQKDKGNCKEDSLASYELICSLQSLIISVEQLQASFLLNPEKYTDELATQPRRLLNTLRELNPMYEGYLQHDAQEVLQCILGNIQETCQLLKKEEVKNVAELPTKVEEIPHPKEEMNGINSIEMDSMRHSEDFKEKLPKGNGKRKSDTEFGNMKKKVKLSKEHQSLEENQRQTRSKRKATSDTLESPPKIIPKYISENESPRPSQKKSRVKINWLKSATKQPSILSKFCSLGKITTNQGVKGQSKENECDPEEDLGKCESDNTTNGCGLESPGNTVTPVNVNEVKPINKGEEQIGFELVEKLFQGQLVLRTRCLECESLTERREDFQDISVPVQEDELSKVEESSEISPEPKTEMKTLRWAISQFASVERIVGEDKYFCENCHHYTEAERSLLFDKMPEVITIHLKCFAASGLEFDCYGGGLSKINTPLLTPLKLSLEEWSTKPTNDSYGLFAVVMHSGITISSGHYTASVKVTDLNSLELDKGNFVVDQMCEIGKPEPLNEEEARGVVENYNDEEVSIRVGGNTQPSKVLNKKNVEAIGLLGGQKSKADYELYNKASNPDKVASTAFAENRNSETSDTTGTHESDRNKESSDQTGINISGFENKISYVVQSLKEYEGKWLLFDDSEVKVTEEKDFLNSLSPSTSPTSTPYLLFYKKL

Molecule: CC(C)C[C@@H](C=O)NC(=O)[C@H](CC(C)C)NC(=O)[C@H](CC(C)C)NC(=O)OCc1ccccc1 [MG-132] (Cbz-Leu-Leu-Leu-aldehyde)
- endogenous ID2 abundance [1]: ID2 accumulates
- ID2 abundance ([2]; USP1−/− DT40 cells): increased ID2
- ID2 abundance ([2]; wild-type DT40 cells): not
- ID expression after USP1 knockdown ([3]; U2-OS cells with USP1 knockdown): did restore ID expression
- ID protein abundance ([3]; U2-OS cells, MG-132 alone): did not by itself alter ID protein abundance

Molecule: doxycycline-induced USP1 shRNA: doxycycline-inducible pTRIPZ shRNA targeting human USP1, 5′-AGGCAATACTTGCTATCTTAAT-3′ (SEQ ID NO:12), Open Biosystems
- xenograft tumors that achieved stasis and differentiation in situ ([4]; 143B USP1-deficient xenograft tumors): four of ten
- ALP activity in xenografts ([4]; 143B xenografts): enhanced ALP activity
- ID1 and ID2 in xenografts ([4]; 143B xenografts, doxycycline): reduced ID1 and ID2
- USP1 expression in xenografts ([4]; 143B xenografts, doxycycline): suppressed USP1 expression
- tumor growth ([4]; 143B xenografts, doxycycline): reduced 143B tumor growth
- osteogenic gene expression in xenografts ([4]; 143B xenografts, RT-PCR, in situ hybridization): promoted OSTEONECTIN, RUNX2, SPP1/OSTEOPONTIN, OSTERIX, and BGLAP/OSTEOCALCIN expression

B1: USP1-Flag (wild-type human USP1 with in-frame C-terminal Flag epitope) (protein)
chain: MPGVIPSESNGLSRGSPSKKNRLSLKFFQKKETKRALDFTDSQENEEKASEYRASEIDQVVPAAQSSPINCEKRENLLPFVGLNNLGNTCYLNSILQVLYFCPGFKSGVKHLFNIISRKKEALKDEANQKDKGNCKEDSLASYELICSLQSLIISVEQLQASFLLNPEKYTDELATQPRRLLNTLRELNPMYEGYLQHDAQEVLQCILGNIQETCQLLKKEEVKNVAELPTKVEEIPHPKEEMNGINSIEMDSMRHSEDFKEKLPKGNGKRKSDTEFGNMKKKVKLSKEHQSLEENQRQTRSKRKATSDTLESPPKIIPKYISENESPRPSQKKSRVKINWLKSATKQPSILSKFCSLGKITTNQGVKGQSKENECDPEEDLGKCESDNTTNGCGLESPGNTVTPVNVNEVKPINKGEEQIGFELVEKLFQGQLVLRTRCLECESLTERREDFQDISVPVQEDELSKVEESSEISPEPKTEMKTLRWAISQFASVERIVGEDKYFCENCHHYTEAERSLLFDKMPEVITIHLKCFAASGLEFDCYGGGLSKINTPLLTPLKLSLEEWSTKPTNDSYGLFAVVMHSGITISSGHYTASVKVTDLNSLELDKGNFVVDQMCEIGKPEPLNEEEARGVVENYNDEEVSIRVGGNTQPSKVLNKKNVEAIGLLGGQKSKADYELYNKASNPDKVASTAFAENRNSETSDTTGTHESDRNKESSDQTGINISGFENKISYVVQSLKEYEGKWLLFDDSEVKVTEEKDFLNSLSPSTSPTSTPYLLFYKKL
- in vitro deubiquitination assay (HA-ubiquitin immunoblot of ID2-Flag) [5]: Ubiquitinated ID2 was decreased by wild-type USP1 but not USP1 C90S

B2: USP1 C90S-Flag (catalytically inactive point mutant of human USP1 with C-terminal Flag epitope) (protein)
chain: MPGVIPSESNGLSRGSPSKKNRLSLKFFQKKETKRALDFTDSQENEEKASEYRASEIDQVVPAAQSSPINCEKRENLLPFVGLNNLGNTSYLNSILQVLYFCPGFKSGVKHLFNIISRKKEALKDEANQKDKGNCKEDSLASYELICSLQSLIISVEQLQASFLLNPEKYTDELATQPRRLLNTLRELNPMYEGYLQHDAQEVLQCILGNIQETCQLLKKEEVKNVAELPTKVEEIPHPKEEMNGINSIEMDSMRHSEDFKEKLPKGNGKRKSDTEFGNMKKKVKLSKEHQSLEENQRQTRSKRKATSDTLESPPKIIPKYISENESPRPSQKKSRVKINWLKSATKQPSILSKFCSLGKITTNQGVKGQSKENECDPEEDLGKCESDNTTNGCGLESPGNTVTPVNVNEVKPINKGEEQIGFELVEKLFQGQLVLRTRCLECESLTERREDFQDISVPVQEDELSKVEESSEISPEPKTEMKTLRWAISQFASVERIVGEDKYFCENCHHYTEAERSLLFDKMPEVITIHLKCFAASGLEFDCYGGGLSKINTPLLTPLKLSLEEWSTKPTNDSYGLFAVVMHSGITISSGHYTASVKVTDLNSLELDKGNFVVDQMCEIGKPEPLNEEEARGVVENYNDEEVSIRVGGNTQPSKVLNKKNVEAIGLLGGQKSKADYELYNKASNPDKVASTAFAENRNSETSDTTGTHESDRNKESSDQTGINISGFENKISYVVQSLKEYEGKWLLFDDSEVKVTEEKDFLNSLSPSTSPTSTPYLLFYKKL
- in vitro deubiquitination assay (HA-ubiquitin immunoblot of ID2-Flag) [5]: Ubiquitinated ID2 was decreased by wild-type USP1 but not USP1 C90S

B3: USP33-Flag (human USP33 with C-terminal Flag epitope) (protein)
chain: MTGSNSHITILTLKVLPHFESLGKQEKIPNKMSAFRNHCPHLDSVGEITKEDLIQKSLGTCQDCKVQGPNLWACLENRCSYVGCGESQVDHSTIHSQETKHYLTVNLTTLRVWCYACSKEVFLDRKLGTQPSLPHVRQPHQIQENSVQDFKIPSNTTLKTPLVAVFDDLDIEADEEDELRARGLTGLKNIGNTCYMNAALQALSNCPPLTQFFLDCGGLARTDKKPAICKSYLKLMTELWHKSRPGSVVPTTLFQGIKTVNPTFRGYSQQDAQEFLRCLMDLLHEELKEQVMEVEEDPQTITTEETMEEDKSQSDVDFQSCESCSNSDRAENENGSRCFSEDNNETTMLIQDDENNSEMSKDWQKEKMCNKINKVNSEGEFDKDRDSISETVDLNNQETVKVQIHSRASEYITDVHSNDLSTPQILPSNEGVNPRLSASPPKSGNLWPGLAPPHKKAQSASPKRKKQHKKYRSVISDIFDGTIISSVQCLTCDRVSVTLETFQDLSLPIPGKEDLAKLHSSSHPTSIVKAGSCGEAYAPQGWIAFFMEYVKRFVVSCVPSWFWGPVVTLQDCLAAFFARDELKGDNMYSCEKCKKLRNGVKFCKVQNFPEILCIHLKRFRHELMFSTKISTHVSFPLEGLDLQPFLAKDSPAQIVTYDLLSVICHHGTASSGHYIAYCRNNLNNLWYEFDDQSVTEVSESTVQNAEAYVLFYRKSSEEAQKERRRISNLLNIMEPSLLQFYISRQWLNKFKTFAEPGPISNNDFLCIHGGVPPRKAGYIEDLVLMLPQNIWDNLYSRYGGGPAVNHLYICHTCQIEAEKIEKRRKTELEIFIRLNRAFQKEDSPATFYCISMQWFREWESFVKGKDGDPPGPIDNTKIAVTKCGNVMLRQGADSGQISEETWNFLQSIYGGGPEVILRPPVVHVDPDILQAEEKIEVETRSL
- deubiquitinating activity against ID2 [6]: unlike USP1, USP33 lacked deubiquitinating activity against ID2 (data not shown)

B4: endogenous ID2 (U2-OS, HOS and 293T cells) (other)
chain: MKAFSPVRSVRKNSLSDHSLGISRSKTPVDDPMSLLYNMNDCYSKLKELVPSIPQNKKVSKMEILQHVIDYILDLQIALDSHPTIVSLHHQRPGQNQASRTPLTTLNTDISILSLQASEFPSELMSNDSKALCG
notes: Endogenous protein of human cell lines
- binding result [7]: binds
